Article PMC6340882, “Targeting protein kinase CK2 and CDK4/6 pathways with a multi-kinase inhibitor ON108110 suppresses pro-survival signaling and growth in mantle cell lymphoma and T-acute lymphoblastic leukemia” (Oncotarget, 2018)

How the values were obtained:
CDK4 = CDK4 (Homo sapiens, UniProt P11802); assay: In vitro kinase assay with recombinant protein (32P-ATP, filtermat); assay type: biochemical; details: recombinant CDK4, independent in vitro kinase assay, 20μM ATP
Procedure: (§1) (B) Structure of ON108110. (C) Calculation of IC50 values against CDK4 and CDK6 and (D) CK2α1 and CK2α2 by ON108110. Recombinant proteins were incubated with the indicated concentrations of ON108110 and subjected to in vitro kinase assays as described in the materials and methods section. Values obtained were plotted as a function of log drug concentration. IC50 values were determined by performing sigmoidal non-linear regression with a variable slope.
(§2) Recombinant CDK4/CYCLIN D1 or CK2α1 were mixed with their respective synthetic peptide substrates (10ng) and incubated with DMSO or increasing concentrations of ON108110 in 20μl kinase buffer [50mM Tris-HCl (pH 7.5), 10mM MgCl2, 1mM EGTA, 2mM DTT and 0.01% NP-40] for 30 min. at room temperature. Kinase reactions were carried out for 20 min at 30°C in the presence of 5μl of substrate-ATP mixture (1μg RB, 20μM ATP, 20μCi γ-^32P-ATP). […] The filtermat was air-dried, blocked with methanol for 2 minutes followed by three washes with 75mM phosphoric acid. The filtermat was then air-dried and analyzed using a phosphoimager.

CK2α1 = CK2α1 (Homo sapiens, UniProt P68400); assay: as above; assay type: biochemical; details: recombinant CK2α1, independent in vitro kinase assay, 20μM ATP
CK2α1, sequence (P68400 whole entry): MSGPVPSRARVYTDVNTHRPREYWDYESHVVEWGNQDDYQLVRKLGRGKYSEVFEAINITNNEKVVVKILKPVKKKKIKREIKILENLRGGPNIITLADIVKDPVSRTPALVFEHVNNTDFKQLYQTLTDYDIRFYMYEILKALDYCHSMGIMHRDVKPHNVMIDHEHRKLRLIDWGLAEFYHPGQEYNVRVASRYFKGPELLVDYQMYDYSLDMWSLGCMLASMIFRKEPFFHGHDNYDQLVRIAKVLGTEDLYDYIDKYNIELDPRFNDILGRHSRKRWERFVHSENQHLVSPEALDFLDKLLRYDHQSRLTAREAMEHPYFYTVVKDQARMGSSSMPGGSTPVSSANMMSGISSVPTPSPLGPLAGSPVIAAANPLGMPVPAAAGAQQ
Procedure: as §1, §2

CK2α2 = CK2α2 (Homo sapiens, UniProt P19784); assay: as above; assay type: biochemical; details: recombinant CK2α2, independent in vitro kinase assay, 20μM ATP
CK2α2, sequence (P19784 whole entry): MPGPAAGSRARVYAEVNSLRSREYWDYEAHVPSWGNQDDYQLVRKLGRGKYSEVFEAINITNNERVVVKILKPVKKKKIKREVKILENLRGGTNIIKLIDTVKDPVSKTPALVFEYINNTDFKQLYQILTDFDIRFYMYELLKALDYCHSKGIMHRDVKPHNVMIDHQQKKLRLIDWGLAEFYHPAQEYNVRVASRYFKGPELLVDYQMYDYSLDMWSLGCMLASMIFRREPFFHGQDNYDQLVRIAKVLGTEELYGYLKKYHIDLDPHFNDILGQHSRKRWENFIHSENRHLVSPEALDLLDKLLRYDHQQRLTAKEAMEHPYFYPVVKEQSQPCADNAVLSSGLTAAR
Procedure: as §1, §2

[1] = molecular target: T1, recombinant CK2α1 kinase domain (Homo sapiens, UniProt P68400); assay: Differential scanning fluorimetry (DSF); assay type: binding; details: apo protein Tm 58°C
T1 construct: Amino acid residues 3-335 of CK2α1 were cloned using BamH1 and HindIII into pET28bsmt3-SUMO fusion vector; His6 (N, cleaved yes); SUMO (N, cleaved yes); made in house; host or cells: Escherichia coli BL21-DE3 (RIL)
T1 sequence (P68400 3-335): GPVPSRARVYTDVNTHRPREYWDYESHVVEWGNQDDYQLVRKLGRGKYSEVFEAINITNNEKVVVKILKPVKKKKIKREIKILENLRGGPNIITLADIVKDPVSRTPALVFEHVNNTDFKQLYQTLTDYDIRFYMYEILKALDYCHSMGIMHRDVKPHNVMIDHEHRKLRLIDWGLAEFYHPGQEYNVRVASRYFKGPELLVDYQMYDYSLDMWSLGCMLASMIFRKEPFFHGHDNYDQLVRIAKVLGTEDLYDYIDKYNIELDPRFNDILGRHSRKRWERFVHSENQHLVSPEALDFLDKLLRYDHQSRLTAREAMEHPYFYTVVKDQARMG
Procedure: 1μM of in-house purified recombinant CK2α1 was diluted in protein buffer and added to a final concentration of 1X of Sypro Orange Dye in the presence of DMSO or increasing concentrations of ON108110. Following a 20 min incubation at room temperature, 20μl samples were pipetted into a clear MicroAmp Fast 96-well Reaction PCR plates and sealed with MicroAmp Optical Adhesive Film. The assay was performed using a StepOne Plus RT-PCR instrument (Applied Biosystems) using an increasing temperature gradient of 20 to 90°C in 0.2°C increments using a 200- millisecond stabilization delay. Florescence readings were acquired with excitation and emission wavelengths of 580±10 nm and 624±14 nm respectively. A customized analysis program (Step One Plus Protein Thermal Shift Software) was used to calculate the Tm from each fluorescence profile (Boltzmann method) and the Tm of the fluorescence (derivative method). Derivative Tm values were obtained from the top of the peak in the derivative plot, while the Boltzmann Tm values calculated from the inflection point of the fluorescence plot.

[2] = tested on: panel of solid tumor and leukemic cell lines; assay: Primary growth inhibition screen, MCLs and T-ALLs compared to other tumor types; assay type: cell-based, human; details: from GI50 values of primary screen
Procedure: Cell lines were cultured in RPMI-1640 medium (Thermo Scientific) supplemented with 10% heat inactivated FBS and penicillin-streptomycin at 37°C under humidified conditions and 5% CO2. All cell lines tested negative for mycoplasma. […] Compounds were added 24 hrs post-plating at the indicated concentrations. Cell counts were determined from duplicate wells 96 hrs post-treatment using the Cell Titer Blue assay in conjunction with the GloMax plate reader (Promega).

[3] = tested on: MCL and ALL cell lines as well as normal PBMCs; assay: GI50 of MCL and ALL cell lines compared to normal PBMCs (Figure 4C); assay type: cell-based, human; details: MCL and T-ALL cell lines vs PBMCs in vitro, 72 hours post-treatment
Procedure: Figure 4 CK2 and CDK4 expression in cell lines and primary samples (A) mRNA levels of CK2 subunits in a panel of MCL and T-ALL leukemic cell lines and normal human PBMCs. (B) Protein levels of CK2 subunits and pRB^Ser807/811 in a panel of MCL and T-ALL leukemic cell lines and normal human PBMCs. (C) Calculation of GI50 values against of ON108110 against MCL and ALL cell lines as well as normal PBMCs 72 hours post-treatment.
Cell lines were cultured in RPMI-1640 medium (Thermo Scientific) supplemented with 10% heat inactivated FBS and penicillin-streptomycin at 37°C under humidified conditions and 5% CO2. All cell lines tested negative for mycoplasma. […] Compounds were added 24 hrs post-plating at the indicated concentrations. […]

[4] = tested on: CDK4/6-specific RB phosphorylation in Granta-519 and CEM cells; assay: Western blot of phosphorylated RB (Ser780 and Ser 807/811); assay type: cell-based, human; details: increasing concentrations, 24 hours
Procedure: Figure 6 Inhibition of CK2/CDK4 mediated signaling by ON108110 (A) CEM and (B) Granta-519 cells were treated with increasing concentrations of ON 108110 for 24 hours. Whole cell extracts were subjected to western blot analysis using antibodies directed against the indicated proteins. GAPDH is shown as a loading control.
Cells were grown as indicated, lysed in lysis buffer (20mM Tris, pH 8.0/ 137mM NaCl/ 10% glycerol/ 1% NP-40) supplemented with 1X protease and phosphatase inhibitor cocktail on ice and resolved by SDS-PAGE. The proteins were transferred to a nitrocellulose membrane and subjected to Western blot analysis using the indicated antibodies. Proteins were visualized using an Odyssey imaging system (LI-COR Biosciences).

CDK4, sequence (P11802 whole entry): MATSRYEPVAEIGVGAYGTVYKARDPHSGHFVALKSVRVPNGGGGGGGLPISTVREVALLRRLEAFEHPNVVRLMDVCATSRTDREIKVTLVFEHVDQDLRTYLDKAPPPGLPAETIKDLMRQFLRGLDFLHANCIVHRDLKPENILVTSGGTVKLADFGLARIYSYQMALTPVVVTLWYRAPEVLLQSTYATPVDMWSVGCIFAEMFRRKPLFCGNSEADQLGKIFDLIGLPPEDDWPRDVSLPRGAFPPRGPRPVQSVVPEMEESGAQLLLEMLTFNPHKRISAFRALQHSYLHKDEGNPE
CDK4, sequence (P24385 whole entry partner): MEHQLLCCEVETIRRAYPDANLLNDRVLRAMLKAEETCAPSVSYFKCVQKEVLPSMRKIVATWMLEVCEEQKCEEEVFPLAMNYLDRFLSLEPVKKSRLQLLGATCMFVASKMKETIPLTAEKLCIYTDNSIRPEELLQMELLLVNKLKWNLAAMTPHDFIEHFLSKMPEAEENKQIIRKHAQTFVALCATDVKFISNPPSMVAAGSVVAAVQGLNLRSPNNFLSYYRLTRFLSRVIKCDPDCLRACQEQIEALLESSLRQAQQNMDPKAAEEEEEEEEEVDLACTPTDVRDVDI

SMILES: CC(=O)Oc1ccc(/C=C2\Sc3ccc(F)cc3NC2=O)cc1[N+](=O)[O-] [ON108110]
- IC50 (CDK4): 6 nM
- IC50 (CK2α1): 3 nM
- IC50 (CK2α2): 2 nM
- melting temperature (Tm) of CK2α1 with compound [1]: 64.8 °C
- shift in the Tm of CK2α1 [1]: 6.8 °C
- fold higher cytotoxicity against MCLs and T-ALLs compared to other tumor types [2]: 10-20 fold
- fold more sensitive compared to PBMCs (IC50 values) [3]: > 100 fold
- CDK4/6-specific RB phosphorylation (Ser780 and Ser 807/811) [4]: concentration-dependent inhibition
